Target: T1, 5HT2c (Homo sapiens, UniProt P28335)
T1 construct: Tango fusion elements (printed only as 'PRESTO-Tango receptor DNAs'); expressed in transfected cells; host or cells: HTLA cells
T1 sequence (P28335 33-458): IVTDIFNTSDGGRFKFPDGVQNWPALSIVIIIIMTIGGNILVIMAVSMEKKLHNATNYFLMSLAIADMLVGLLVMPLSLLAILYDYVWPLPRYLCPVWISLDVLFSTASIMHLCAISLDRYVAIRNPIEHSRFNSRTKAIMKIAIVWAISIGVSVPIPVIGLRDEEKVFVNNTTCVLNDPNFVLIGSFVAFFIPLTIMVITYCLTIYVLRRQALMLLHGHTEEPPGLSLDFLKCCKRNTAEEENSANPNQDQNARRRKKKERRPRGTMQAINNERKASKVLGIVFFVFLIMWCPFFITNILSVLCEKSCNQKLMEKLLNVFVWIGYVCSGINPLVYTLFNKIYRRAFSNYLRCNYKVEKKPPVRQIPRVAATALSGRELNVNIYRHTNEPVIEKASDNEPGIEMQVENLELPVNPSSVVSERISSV
Assay: PRESTO-Tango GPCR-ome counter-screen, agonist mode
Assay type: cell-based
Conditions: arrestin recruitment Tango, in words
Experimental: Screening of compounds in the PRESTO-Tango GPCR-ome was accomplished as previously described (Kroeze, supra). with several modifications. First, HTLA cells were plated in DMEM with 10% FBS and 10 U/mL penicillin-streptomycin. Next, the cells were transfected using an in-plate PEI method (Longo, P. A. et al., Methods Enzymol 529, 227-240, 2013). PRESTO-Tango receptor DNAs were resuspended in OptiMEM and hybridized with PEI prior to dilution and distribution to 384-well plates and subsequent addition to cells. After overnight incubation, drugs were added to cells without replacement of the medium. The remaining steps of the PRESTO-Tango protocol were followed as previously described.

COc1ccc(Br)c(CNc2cccnc2)c1 [ZINC128734226]
off-target agonist activity on 5HT2c: did have some activity on 5HT2c
